Results on 15 compounds are retold here after patent publication US11529341B2, “Bicyclic compounds as inhibitors of PD1/PD-L1 interaction/activation” (JUBILANT PRODEL LLC, priority 2018, dated 2022).

The target in the test is T1, PD-1/PD-L1 interaction (Homo sapiens, UniProt Q9NZQ7).
T1 construct: Tag1 (undisclosed kit tag); purchased CisBio 63ADK000CPAPEG
The test is described as follows: PD-1/PD-L1 Homogenous Time-Resolved Fluorescence (HTRF) binding assay (CisBio kit). The conditions noted are these: Biochemical PD1/PD-L1 inhibition. An outline of the steps: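 Tagged PD-L1 and PD-1 proteins preincubated with compound 15 min, then anti-Tag1-Eu3+ donor and anti-Tag2-XL665 acceptor added, 1 h at room temperature. Emission read at 665 and 620 nm; signal expressed as HTRF ratio (665/620)×10^4, loss of signal indicating blocked binding.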
A general note: Time-resolved FRET reads energy transfer from a long-lived donor to a nearby acceptor.

T1 sequence (Q9NZQ7 19-238 limits assumed): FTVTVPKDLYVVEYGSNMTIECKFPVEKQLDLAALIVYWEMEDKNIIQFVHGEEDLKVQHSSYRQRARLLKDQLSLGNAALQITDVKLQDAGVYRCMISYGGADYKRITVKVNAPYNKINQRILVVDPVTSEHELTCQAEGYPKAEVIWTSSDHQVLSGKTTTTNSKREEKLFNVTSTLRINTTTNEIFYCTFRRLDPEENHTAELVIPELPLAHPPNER

The IC50 is the concentration that inhibits the measured activity by half. Compound `CC(=O)NCCNCc1c(OC[C@H]2C[C@H]2C(=O)O)cc(OCc2cccc(-c3ccccc3)c2C)c2c1CCC2` [Compound 83, (1R,2S)-2-(((4-(((2-acetamidoethyl)amino)methyl)-7-((2-methyl-[1,1′-biphenyl]-3-yl)methoxy)-2,3-dihydro-1H-inden-5-yl)oxy)methyl)cyclopropane-1-carboxylic acid] returned a 50% inhibitory concentration (IC50) of 0.1 to 0.5 µM.

On to `COc1cc(OCc2cccc(-c3ccc4c(c3)OCCO4)c2C)c2c(c1CN1CCCC[C@H]1C(=O)O)CCC2` [Compound 84, (S)-1-((7-((3-(2,3-dihydrobenzo[b][1,4]dioxin-6-yl)-2-methylbenzyl)oxy)-5-methoxy-2,3-dihydro-1H-inden-4-yl)methyl)piperidine-2-carboxylic acid], for which the IC50 was < 0.1 µM.

The compound `COc1cc(OCc2cccc(-c3ccc4c(c3)OCCO4)c2C)c2c(c1CN1C[C@H](O)C[C@H]1C(=O)O)CCC2` [Compound 85, (2S,4R)-1-((7-((3-(2,3-dihydrobenzo[b][1,4]dioxin-6-yl)-2-methylbenzyl)oxy)-5-methoxy-2,3-dihydro-1H-inden-4-yl)methyl)-4-hydroxypyrrolidine-2-carboxylic acid] came in with a 50% inhibitory concentration (IC50) of 0.1 to 0.5 µM.

For the compound `CC(=O)NCCNCc1c(OCc2cccc(C#N)c2)cc(OCc2cccc(-c3ccccc3C)c2C)c2c1CCC2` [Compound 86, N-(2-(((5-((3-cyanobenzyl)oxy)-7-((2,2′-dimethyl-[1,1′-biphenyl]-3-yl)methoxy)-2,3-dihydro-1H-inden-4-yl)methyl)amino)ethyl)acetamide], the IC50 fell in the range of 0.1 to 0.5 µM.

In the case of `CC(=O)NCCNCc1c(OCc2cccc(C#N)c2)cc(OCc2cccc(-c3ccc(F)cc3)c2C)c2c1CCC2` [Compound 87, N-(2-(((5-((3-cyanobenzyl)oxy)-7-((4′-fluoro-2-methyl-[1,1′-biphenyl]-3-yl)methoxy)-2,3-dihydro-1H-inden-4-yl)methyl)amino)ethyl)acetamide], the IC50 lay in the range of 0.1 to 0.5 µM.

With `Cc1c(COc2cc(OCc3cccc(C(N)=O)c3)c(CN3CCCC[C@H]3C(=O)O)c3c2CCC3)cccc1-c1ccccc1` [Compound 88, (S)-1-((5-((3-carbamoylbenzyl)oxy)-7-((2-methyl-[1,1′-biphenyl]-3-yl)methoxy)-2,3-dihydro-1H-inden-4-yl)methyl)piperidine-2-carboxylic acid], the IC50 fell in the range of 0.1 to 0.5 µM.

On to `Cc1c(COc2cc(OCc3cccc(C#N)c3)c(CN)c3c2CCC3)cccc1-c1ccccc1` [Compound 89, 3-(((4-(aminomethyl)-7-((2-methyl-[1,1′-biphenyl]-3-yl)methoxy)-2,3-dihydro-1H-inden-5-yl)oxy)methyl)benzonitrile], for which the IC50 was < 0.1 µM.

As to `CC(=O)NCc1c(OCc2cccc(C#N)c2)cc(OCc2cccc(-c3ccccc3)c2C)c2c1CCC2` [Compound 90, N-((5-((3-cyanobenzyl)oxy)-7-((2-methyl-[1,1′-biphenyl]-3-yl)methoxy)-2,3-dihydro-1H-inden-4-yl)methyl)acetamide], the IC50 was > 0.5 µM.

Consider `CC(=O)NCCCCCC(=O)NCc1c(OCc2cccc(C#N)c2)cc(OCc2cccc(-c3ccccc3)c2C)c2c1CCC2` [Compound 91, 6-acetamido-N-((5-((3-cyanobenzyl)oxy)-7-((2-methyl-[1,1′-biphenyl]-3-yl)methoxy)-2,3-dihydro-1H-inden-4-yl)methyl)hexanamide], for which the IC50 is > 0.5 µM.

Turning to `Cc1c(COc2cc(OCc3cccc(C#N)c3)c(CN(C)C)c3c2CCC3)cccc1-c1ccccc1` [Compound 92, 3-(((4-((dimethylamino)methyl)-7-((2-methyl-[1,1′-biphenyl]-3-yl)methoxy)-2,3-dihydro-1H-inden-5-yl)oxy)methyl)benzonitrile], the IC50 is < 0.1 µM.

For `CC(=O)NCCNCc1c(OCc2cncc(C(=O)O)c2)cc(OCc2cccc(-c3ccccc3)c2C)c2c1CCC2` [Compound 93, 5-(((4-(((2-acetamidoethyl)amino)methyl)-7-((2-methyl-[1,1′-biphenyl]-3-yl)methoxy)-2,3-dihydro-1H-inden-5-yl)oxy)methyl)nicotinic acid], the IC50 was < 0.1 µM.

Take `CC(=O)NCCNCc1c(OCc2cncc(C(N)=O)c2)cc(OCc2cccc(-c3ccccc3)c2C)c2c1CCC2` [Compound 94, 5-(((4-(((2-acetamidoethyl)amino)methyl)-7-((2-methyl-[1,1′-biphenyl]-3-yl)methoxy)-2,3-dihydro-1H-inden-5-yl)oxy)methyl)nicotinamide]: the half-inhibitory concentration (IC50) is < 0.1 µM.

Regarding `CC(=O)NCCNCc1c(OCc2cccc(C(N)=O)c2)cc(OCc2cccc(-c3ccccc3)c2C)c2c1CCC2` [Compound 95, 3-(((4-(((2-acetamidoethyl)amino)methyl)-7-((2-methyl-[1,1′-biphenyl]-3-yl)methoxy)-2,3-dihydro-1H-inden-5-yl)oxy)methyl)benzamide], the IC50 was < 0.1 µM.

Regarding `COc1nc(OCc2cccc(-c3ccccc3)c2C)c2c(c1CNCCNC(C)=O)CCC2` [Compound 97, N-(2-(((3-methoxy-1-((2-methyl-[1,1′-biphenyl]-3-yl)methoxy)-6,7-dihydro-5H-cyclopenta[c]pyridin-4-yl)methyl)amino)ethyl)acetamide], the half-maximal inhibitory concentration (IC50) is < 0.1 µM.

`COc1cc(OCc2cccc(-c3ccccc3)c2C)c2c(c1CN1CCOC[C@H]1C(=O)O)CCC2` [Compound 98, (S)-4-((5-methoxy-7-((2-methyl-[1,1′-biphenyl]-3-yl)methoxy)-2,3-dihydro-1H-inden-4-yl)methyl)morpholine-3-carboxylic acid]: the IC50 was < 0.1 µM.
